What was measured:
Experiment in all cases: KINOMEscan
Assay type in all cases: binding
ABL1 (Q252H)-P = target: T1, ABL1 (Q252H)-P (Homo sapiens, UniProt P00519, Q252H)
T1 construct: purchased Eurofins DiscoverX KINOMEscan
Summary of the method: (§1)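 Competition binding run for 1 h at room temperature; kinase left unbound by compound was captured on an immobilized affinity ligand and quantified by qPCR. Kd was taken from a 12-point half-log dilution series with a 33 μM top concentration.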

ABL1 (T315I)-non-P = target: T2, ABL1 (T315I)-non-P (Homo sapiens, UniProt P00519, T315I)
T2 construct: purchased Eurofins DiscoverX KINOMEscan
Summary of the method: as §1

CDK4-cyclinD3 = target: T3, CDK4-cyclinD3 (Homo sapiens, UniProt P11802)
T3 construct: purchased Eurofins DiscoverX KINOMEscan
Summary of the method: as §1

CIT = target: T4, CIT (Homo sapiens, UniProt O14578)
T4 construct: purchased Eurofins DiscoverX KINOMEscan
Summary of the method: as §1

CLK1 = target: T5, CLK1 (Homo sapiens, UniProt P49759)
T5 construct: purchased Eurofins DiscoverX KINOMEscan
T5 sequence (P49759 whole entry): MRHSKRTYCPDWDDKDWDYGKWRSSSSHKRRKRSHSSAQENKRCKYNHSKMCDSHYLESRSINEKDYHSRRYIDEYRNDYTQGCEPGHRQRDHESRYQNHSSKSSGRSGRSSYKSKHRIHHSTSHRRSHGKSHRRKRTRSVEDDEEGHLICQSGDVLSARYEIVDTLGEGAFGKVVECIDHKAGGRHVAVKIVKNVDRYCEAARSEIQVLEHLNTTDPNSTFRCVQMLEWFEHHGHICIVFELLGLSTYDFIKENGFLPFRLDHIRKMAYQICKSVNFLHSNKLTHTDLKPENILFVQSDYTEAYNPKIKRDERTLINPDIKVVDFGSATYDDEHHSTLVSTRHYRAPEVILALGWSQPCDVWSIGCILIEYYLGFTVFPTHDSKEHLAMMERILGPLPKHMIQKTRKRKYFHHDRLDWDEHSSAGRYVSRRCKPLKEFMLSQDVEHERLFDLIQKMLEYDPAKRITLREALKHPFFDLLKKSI
Summary of the method: (§2)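 A 12-point half-log dilution series topping at 33 μM defined each Kd. The kinase fraction escaping compound binding over 1 h at room temperature was trapped by an immobilized affinity ligand and measured by quantitative PCR.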

CSNK1G2 = target: T6, CSNK1G2 (Homo sapiens, UniProt P78368)
T6 construct: purchased Eurofins DiscoverX KINOMEscan
Summary of the method: as §1

DDR1 = target: T7, DDR1 (Homo sapiens, UniProt Q08345)
T7 construct: purchased Eurofins DiscoverX KINOMEscan
T7 sequence (Q08345 19-913): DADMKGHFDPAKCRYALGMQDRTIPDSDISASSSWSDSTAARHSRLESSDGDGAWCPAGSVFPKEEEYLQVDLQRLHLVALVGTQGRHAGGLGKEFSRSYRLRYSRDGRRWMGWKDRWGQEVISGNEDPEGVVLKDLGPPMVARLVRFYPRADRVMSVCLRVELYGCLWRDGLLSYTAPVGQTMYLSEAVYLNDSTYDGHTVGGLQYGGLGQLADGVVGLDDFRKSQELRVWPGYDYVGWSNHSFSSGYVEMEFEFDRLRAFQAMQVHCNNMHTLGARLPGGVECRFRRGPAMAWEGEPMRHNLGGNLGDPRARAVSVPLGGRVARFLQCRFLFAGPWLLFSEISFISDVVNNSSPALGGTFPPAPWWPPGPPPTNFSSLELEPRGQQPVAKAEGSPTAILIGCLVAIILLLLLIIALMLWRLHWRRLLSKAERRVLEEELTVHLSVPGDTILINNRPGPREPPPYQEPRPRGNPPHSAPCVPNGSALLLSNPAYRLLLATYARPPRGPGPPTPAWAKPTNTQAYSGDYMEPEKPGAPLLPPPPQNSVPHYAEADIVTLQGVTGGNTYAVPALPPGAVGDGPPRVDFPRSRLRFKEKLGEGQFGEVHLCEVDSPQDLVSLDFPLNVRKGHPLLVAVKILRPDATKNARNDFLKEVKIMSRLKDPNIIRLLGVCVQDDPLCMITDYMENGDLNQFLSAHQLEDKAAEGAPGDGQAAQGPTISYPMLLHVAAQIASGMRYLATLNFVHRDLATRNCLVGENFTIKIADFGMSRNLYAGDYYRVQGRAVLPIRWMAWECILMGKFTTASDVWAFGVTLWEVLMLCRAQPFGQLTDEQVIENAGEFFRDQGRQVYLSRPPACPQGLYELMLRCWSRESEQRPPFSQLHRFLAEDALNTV
Summary of the method: as §2

DRAK2 = target: T8, DRAK2 (Homo sapiens, UniProt O94768)
T8 construct: purchased Eurofins DiscoverX KINOMEscan
Summary of the method: as §1

EGFR = target: T9, EGFR (Homo sapiens, UniProt P00533)
T9 construct: purchased Eurofins DiscoverX KINOMEscan
T9 sequence (P00533 25-1210): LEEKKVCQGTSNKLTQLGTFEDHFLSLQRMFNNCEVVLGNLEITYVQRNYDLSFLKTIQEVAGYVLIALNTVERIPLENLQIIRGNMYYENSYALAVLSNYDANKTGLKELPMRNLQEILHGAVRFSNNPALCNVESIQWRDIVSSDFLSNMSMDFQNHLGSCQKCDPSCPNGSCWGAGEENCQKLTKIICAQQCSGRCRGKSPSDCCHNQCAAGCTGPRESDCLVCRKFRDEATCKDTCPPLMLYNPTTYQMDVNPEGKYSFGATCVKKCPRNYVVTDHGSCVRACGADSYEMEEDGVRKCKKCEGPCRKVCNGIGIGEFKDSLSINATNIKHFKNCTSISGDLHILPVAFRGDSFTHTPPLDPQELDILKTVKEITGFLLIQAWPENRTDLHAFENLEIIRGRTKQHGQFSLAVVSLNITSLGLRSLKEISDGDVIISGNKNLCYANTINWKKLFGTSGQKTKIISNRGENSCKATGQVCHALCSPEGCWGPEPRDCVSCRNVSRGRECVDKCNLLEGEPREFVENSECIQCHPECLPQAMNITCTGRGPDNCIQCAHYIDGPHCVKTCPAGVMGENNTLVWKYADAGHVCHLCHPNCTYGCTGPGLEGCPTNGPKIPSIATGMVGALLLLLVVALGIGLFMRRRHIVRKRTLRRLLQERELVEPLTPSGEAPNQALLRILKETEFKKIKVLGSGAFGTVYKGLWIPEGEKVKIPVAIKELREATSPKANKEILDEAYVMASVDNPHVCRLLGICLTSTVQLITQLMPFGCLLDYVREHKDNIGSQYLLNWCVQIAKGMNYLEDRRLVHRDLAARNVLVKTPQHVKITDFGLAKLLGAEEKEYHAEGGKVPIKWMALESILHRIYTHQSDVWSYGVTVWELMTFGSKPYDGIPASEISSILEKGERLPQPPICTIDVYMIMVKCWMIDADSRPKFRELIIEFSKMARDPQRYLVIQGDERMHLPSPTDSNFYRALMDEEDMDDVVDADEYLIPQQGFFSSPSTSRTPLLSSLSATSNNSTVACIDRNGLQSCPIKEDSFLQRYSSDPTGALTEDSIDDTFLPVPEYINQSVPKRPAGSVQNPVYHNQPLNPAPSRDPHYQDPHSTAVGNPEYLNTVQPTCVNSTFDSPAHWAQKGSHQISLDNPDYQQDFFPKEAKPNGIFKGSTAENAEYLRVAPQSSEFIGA
Summary of the method: as §1

EPHA2 = target: T10, EPHA2 (Homo sapiens, UniProt P29317)
T10 construct: purchased Eurofins DiscoverX KINOMEscan
Summary of the method: as §1

ERK2 = target: T11, ERK2 (Homo sapiens, UniProt P28482)
T11 construct: purchased Eurofins DiscoverX KINOMEscan
T11 sequence (P28482 whole entry): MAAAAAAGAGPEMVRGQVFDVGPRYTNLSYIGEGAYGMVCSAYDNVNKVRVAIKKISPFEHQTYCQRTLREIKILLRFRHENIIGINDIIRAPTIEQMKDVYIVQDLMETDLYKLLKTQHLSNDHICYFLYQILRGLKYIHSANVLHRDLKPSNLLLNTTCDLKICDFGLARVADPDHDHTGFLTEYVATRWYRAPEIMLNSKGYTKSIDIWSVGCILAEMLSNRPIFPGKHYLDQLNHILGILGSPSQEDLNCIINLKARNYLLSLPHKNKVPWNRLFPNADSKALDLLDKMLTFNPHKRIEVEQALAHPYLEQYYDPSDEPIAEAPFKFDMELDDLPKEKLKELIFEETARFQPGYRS
Summary of the method: as §1

FLT3 (D835V) = target: T12, FLT3 (D835V) (Homo sapiens, UniProt P36888, D835V)
T12 construct: purchased Eurofins DiscoverX KINOMEscan
Summary of the method: as §1

FLT3 (K663Q) = target: T13, FLT3 (K663Q) (Homo sapiens, UniProt P36888, K663Q)
T13 construct: purchased Eurofins DiscoverX KINOMEscan
Summary of the method: as §1

FLT4 = target: T14, FLT4 (Homo sapiens, UniProt P35916)
T14 construct: purchased Eurofins DiscoverX KINOMEscan
Summary of the method: as §1

GRK1 = target: T15, GRK1 (Homo sapiens, UniProt Q15835)
T15 construct: purchased Eurofins DiscoverX KINOMEscan
Summary of the method: as §1

GRK3 = target: T16, GRK3 (Homo sapiens, UniProt P35626)
T16 construct: purchased Eurofins DiscoverX KINOMEscan
Summary of the method: as §1

IKK-α = target: T17, IKK-α (Homo sapiens, UniProt O15111)
T17 construct: purchased Eurofins DiscoverX KINOMEscan
Summary of the method: as §2

IRAK3 = target: T18, IRAK3 (Homo sapiens, UniProt Q9Y616)
T18 construct: purchased Eurofins DiscoverX KINOMEscan
Summary of the method: as §2

KIT (D816V) = target: T19, KIT (D816V) (Homo sapiens, UniProt P10721, D816V)
T19 construct: purchased Eurofins DiscoverX KINOMEscan
T19 sequence (P10721 26-976 D816V): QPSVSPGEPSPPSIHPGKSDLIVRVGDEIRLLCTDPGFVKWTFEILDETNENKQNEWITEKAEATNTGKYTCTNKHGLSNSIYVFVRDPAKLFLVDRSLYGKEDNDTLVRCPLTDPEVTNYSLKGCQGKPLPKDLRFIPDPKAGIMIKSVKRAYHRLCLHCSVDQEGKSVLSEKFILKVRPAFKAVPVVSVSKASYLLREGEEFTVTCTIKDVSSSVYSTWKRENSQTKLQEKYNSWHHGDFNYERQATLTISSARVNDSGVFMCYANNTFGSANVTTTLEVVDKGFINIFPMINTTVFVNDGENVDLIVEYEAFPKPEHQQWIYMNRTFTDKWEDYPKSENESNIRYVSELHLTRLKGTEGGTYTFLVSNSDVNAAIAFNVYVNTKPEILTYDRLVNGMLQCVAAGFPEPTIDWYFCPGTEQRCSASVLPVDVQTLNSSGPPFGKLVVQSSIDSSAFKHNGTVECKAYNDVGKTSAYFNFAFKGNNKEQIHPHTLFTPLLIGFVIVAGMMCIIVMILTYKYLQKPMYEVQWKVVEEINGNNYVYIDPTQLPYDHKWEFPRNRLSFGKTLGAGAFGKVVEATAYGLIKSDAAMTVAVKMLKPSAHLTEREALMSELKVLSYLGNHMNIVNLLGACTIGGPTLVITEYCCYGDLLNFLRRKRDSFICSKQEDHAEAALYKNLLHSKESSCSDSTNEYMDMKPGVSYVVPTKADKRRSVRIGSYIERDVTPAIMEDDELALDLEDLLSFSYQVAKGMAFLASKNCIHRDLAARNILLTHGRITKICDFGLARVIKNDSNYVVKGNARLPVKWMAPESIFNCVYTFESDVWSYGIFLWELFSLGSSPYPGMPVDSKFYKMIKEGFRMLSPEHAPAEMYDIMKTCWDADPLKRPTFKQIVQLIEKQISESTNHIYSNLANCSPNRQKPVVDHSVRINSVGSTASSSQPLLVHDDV
Summary of the method: as §1

KIT = target: T20, KIT (Homo sapiens, UniProt P10721)
T20 construct: purchased Eurofins DiscoverX KINOMEscan
T20 sequence (P10721 26-976): as the sequence (P10721 26-976 D816V) above, with V791D counted along it
Summary of the method: as §1

KIT (V559D) = target: T21, KIT (V559D) (Homo sapiens, UniProt P10721, V559D)
T21 construct: purchased Eurofins DiscoverX KINOMEscan
T21 sequence (P10721 26-976 V559D): as the sequence (P10721 26-976 D816V) above, with V534D, V791D counted along it
Summary of the method: as §1

KIT (V559D, V654A) = target: T22, KIT (V559D, V654A) (Homo sapiens, UniProt P10721, V559D/V654A)
T22 construct: purchased Eurofins DiscoverX KINOMEscan
T22 sequence (P10721 26-976 V559D/V654A): as the sequence (P10721 26-976 D816V) above, with V534D, V629A, V791D counted along it
Summary of the method: as §2

LYN = target: T23, LYN (Homo sapiens, UniProt P07948)
T23 construct: purchased Eurofins DiscoverX KINOMEscan
T23 sequence (P07948 whole entry): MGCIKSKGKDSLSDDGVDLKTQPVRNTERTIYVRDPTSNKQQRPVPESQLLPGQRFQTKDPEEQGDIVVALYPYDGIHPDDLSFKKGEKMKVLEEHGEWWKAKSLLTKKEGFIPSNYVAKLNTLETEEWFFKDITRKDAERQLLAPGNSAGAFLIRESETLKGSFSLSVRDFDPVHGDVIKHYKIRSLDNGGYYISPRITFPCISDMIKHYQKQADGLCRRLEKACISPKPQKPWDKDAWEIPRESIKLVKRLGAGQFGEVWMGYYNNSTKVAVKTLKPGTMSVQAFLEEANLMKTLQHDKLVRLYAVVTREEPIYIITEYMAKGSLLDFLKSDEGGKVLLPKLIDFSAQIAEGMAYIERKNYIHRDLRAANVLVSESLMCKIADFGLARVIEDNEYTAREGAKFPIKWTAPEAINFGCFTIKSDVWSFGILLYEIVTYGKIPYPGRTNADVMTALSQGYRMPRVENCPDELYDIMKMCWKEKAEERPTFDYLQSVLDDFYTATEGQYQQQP
Summary of the method: as §1

MLK1 = target: T24, MLK1 (Homo sapiens, UniProt P80192)
T24 construct: purchased Eurofins DiscoverX KINOMEscan
Summary of the method: as §1

MUSK = target: T25, MUSK (Homo sapiens, UniProt O15146)
T25 construct: purchased Eurofins DiscoverX KINOMEscan
Summary of the method: as §1

PAK4 = target: T26, PAK4 (Homo sapiens, UniProt O96013)
T26 construct: purchased Eurofins DiscoverX KINOMEscan
Summary of the method: as §1

PFTK1 = target: T27, PFTK1 (Homo sapiens, UniProt O94921)
T27 construct: purchased Eurofins DiscoverX KINOMEscan
Summary of the method: as §2

PIP5K1A = target: T28, PIP5K1A (Homo sapiens, UniProt Q99755)
T28 construct: purchased Eurofins DiscoverX KINOMEscan
Summary of the method: as §1

PRKG1 = target: T29, PRKG1 (Homo sapiens, UniProt Q13976)
T29 construct: purchased Eurofins DiscoverX KINOMEscan
Summary of the method: as §2

RIOK2 = target: T30, RIOK2 (Homo sapiens, UniProt Q9BVS4)
T30 construct: purchased Eurofins DiscoverX KINOMEscan
Summary of the method: as §1

ROCK2 = target: T31, ROCK2 (Homo sapiens, UniProt O75116)
T31 construct: purchased Eurofins DiscoverX KINOMEscan
Summary of the method: as §2

[1] = target: T32, RSK3 (Kin. Dom.2-C-term.) (Homo sapiens, UniProt Q15349)
T32 construct: RSK3 (Kin. Dom.2-C-term.); purchased Eurofins DiscoverX KINOMEscan
Summary of the method: as §1

SIK2 = target: T33, SIK2 (Homo sapiens, UniProt Q9H0K1)
T33 construct: purchased Eurofins DiscoverX KINOMEscan
Summary of the method: as §1

TBK1 = target: T34, TBK1 (Homo sapiens, UniProt Q9UHD2)
T34 construct: purchased Eurofins DiscoverX KINOMEscan
Summary of the method: as §1

TEC = target: T35, TEC (Homo sapiens, UniProt P42680)
T35 construct: purchased Eurofins DiscoverX KINOMEscan
Summary of the method: as §1

TGFBR2 = target: T36, TGFBR2 (Homo sapiens, UniProt P37173)
T36 construct: purchased Eurofins DiscoverX KINOMEscan
T36 sequence (P37173 23-567): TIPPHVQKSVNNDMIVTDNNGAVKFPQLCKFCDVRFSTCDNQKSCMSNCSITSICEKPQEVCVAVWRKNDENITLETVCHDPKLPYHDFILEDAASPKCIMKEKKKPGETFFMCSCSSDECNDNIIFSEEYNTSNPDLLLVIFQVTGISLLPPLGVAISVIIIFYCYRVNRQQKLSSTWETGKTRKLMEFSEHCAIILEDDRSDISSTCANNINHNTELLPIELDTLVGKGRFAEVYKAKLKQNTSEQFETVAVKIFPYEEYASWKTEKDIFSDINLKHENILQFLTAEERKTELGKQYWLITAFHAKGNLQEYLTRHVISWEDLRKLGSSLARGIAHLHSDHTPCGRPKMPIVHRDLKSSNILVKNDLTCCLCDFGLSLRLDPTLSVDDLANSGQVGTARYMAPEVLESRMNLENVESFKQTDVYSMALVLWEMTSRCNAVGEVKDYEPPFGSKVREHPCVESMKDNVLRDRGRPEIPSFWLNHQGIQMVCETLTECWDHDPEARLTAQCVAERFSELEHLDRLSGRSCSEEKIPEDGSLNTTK
Summary of the method: as §2

TSSK3 = target: T37, TSSK3 (Homo sapiens, UniProt Q96PN8)
T37 construct: purchased Eurofins DiscoverX KINOMEscan
Summary of the method: as §1

YANK2 = target: T38, YANK2 (Homo sapiens, UniProt Q9NY57)
T38 construct: purchased Eurofins DiscoverX KINOMEscan
Summary of the method: as §1

ZAP70 = target: T39, ZAP70 (Homo sapiens, UniProt P43403)
T39 construct: purchased Eurofins DiscoverX KINOMEscan
Summary of the method: as §1

With `O=C1Nc2c(cc([N+](=O)[O-])c3c2CCCC3)C1=NO` [Compound 5d, 3-(Hydroxyimino)-5-nitro-1,3,6,7,8,9-hexahydro-2H-benzo[g]indol-2-one] the inhibition at 10 µM (ABL1 (Q252H)-P) was 47%, the inhibition at 10 µM (ABL1 (T315I)-non-P) was 1% and the inhibition at 10 µM (CDK4-cyclinD3) was 22%. For the same compound, the inhibition at 10 µM (CIT) was 92.8%, the inhibition at 10 µM (CLK1) was 85% and the inhibition at 10 µM (CSNK1G2) was 90%. For the same compound, the inhibition at 10 µM (DDR1) was 0%, the inhibition at 10 µM (DRAK2) was 78% and the inhibition at 10 µM (EGFR) was 15%. For the same compound, the inhibition at 10 µM (EPHA2) was 19%, the inhibition at 10 µM (ERK2) was 8% and the inhibition at 10 µM (FLT3 (D835V)) was 72%. For the same compound, the inhibition at 10 µM (FLT3 (K663Q)) was 5%, the inhibition at 10 µM (FLT4) was 8% and the inhibition at 10 µM (GRK1) was 67%. The inhibition at 10 µM (GRK3) was 77%, the inhibition at 10 µM (IKK-α) was 52% and the inhibition at 10 µM (IRAK3) was 32%. The inhibition at 10 µM (KIT (D816V)) was 22%, the inhibition at 10 µM (KIT) was 0% and the inhibition at 10 µM (KIT (V559D)) was 0%. The inhibition at 10 µM (KIT (V559D, V654A)) was 0%, the inhibition at 10 µM (LYN) was 9% and the inhibition at 10 µM (MLK1) was 18%. The inhibition at 10 µM (MUSK) was 0%, the inhibition at 10 µM (PAK4) was 43% and the inhibition at 10 µM (PFTK1) was 0%. The inhibition at 10 µM (PIP5K1A) was 54%, the inhibition at 10 µM (PRKG1) was 11% and the inhibition at 10 µM (RIOK2) was 80%. For the same compound, the inhibition at 10 µM (ROCK2) was 54%, the inhibition at 10 µM [1] was 74% and the inhibition at 10 µM (SIK2) was 7%. It also gave an inhibition at 10 µM (TBK1) of 46%, an inhibition at 10 µM (TEC) of 9% and an inhibition at 10 µM (TGFBR2) of 24%. For the same compound, the inhibition at 10 µM (TSSK3) was 61%, the inhibition at 10 µM (YANK2) was 0% and the inhibition at 10 µM (ZAP70) was 2%.

From article PMC12300041, “Tricyclic Isatin Derivatives as Anti-Inflammatory Compounds with High Kinase Binding Affinity” (Molecules, 2025)
